Where two headings read alike, the source gives them in different places.

Data set [1] deals with T1, cyclooxygenase-1 (COX-1) (Homo sapiens, UniProt P23219).
T1 construct: an enzyme prepared from human platelets; from tissue; host or cells: human platelets
As to the kind of experiment: inhibitory activity on cyclooxygenase-1 (Experimental Example 1-2, enzyme prepared from human platelets). In kind it is biochemical. The note with it: COX-1 prepared from human platelets.
Procedure: (§1) That is, a test sample (20 μl), an enzyme solution (20 μl) and distilled water (10 μl) were added to 100 mM Tris-HCl buffer (pH 8, 140 μl) containing hematin (2 μM) and tryptophan (5 mM), and the mixture was thoroughly stirred, which was followed by preincubation at 24° C. for 5 minutes. Then, a ^1 4 C arachidonic acid solution (10 μl) was added and the mixture was reacted at 24° C., whereafter a solution (40 μl) of ethyl ether/methanol/1 M citric acid (30/4/1) ice-cooled to -20° C. was added to stop the reaction.

The next data set deals with T2, cyclooxygenase-2 (COX-2) (Ovis aries, UniProt P79208).
T2 sequence (P79208 17-603): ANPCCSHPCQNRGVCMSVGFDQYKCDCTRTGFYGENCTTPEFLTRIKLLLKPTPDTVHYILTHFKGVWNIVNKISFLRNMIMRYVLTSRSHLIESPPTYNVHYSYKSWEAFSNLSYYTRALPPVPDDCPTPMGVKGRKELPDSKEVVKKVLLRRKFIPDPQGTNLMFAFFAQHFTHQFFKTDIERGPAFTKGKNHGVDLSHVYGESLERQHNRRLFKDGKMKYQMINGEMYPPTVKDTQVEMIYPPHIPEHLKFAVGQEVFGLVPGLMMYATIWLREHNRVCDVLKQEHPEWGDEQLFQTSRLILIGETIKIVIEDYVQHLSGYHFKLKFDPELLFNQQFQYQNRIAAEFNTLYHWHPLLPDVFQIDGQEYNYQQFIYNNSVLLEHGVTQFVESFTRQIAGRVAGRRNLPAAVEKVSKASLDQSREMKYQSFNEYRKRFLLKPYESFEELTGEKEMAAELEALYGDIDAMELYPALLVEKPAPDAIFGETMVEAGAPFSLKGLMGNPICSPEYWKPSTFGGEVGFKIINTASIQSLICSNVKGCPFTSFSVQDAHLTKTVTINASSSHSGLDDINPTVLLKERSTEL
As to the kind of experiment: inhibitory activity on cyclooxygenase-2 (Experimental Example 1-1, sheep placenta solubilized fraction). In kind it is biochemical. The note with it: for IC50: sheep placenta COX-2, pH 8, 24° C.; for inhibition at 100 µM: sheep placenta COX-2, inhibition at 100 μM test compound.

The test system of data set [2] is carrageenin-induced paw edema. As to the kind of experiment: effects on carrageenin-induced paw edema in rats (Experimental Example 2). In kind it is in vivo, male Donryu rats. The note with it: Rattus norvegicus, po, 3 h. The method, then:
Carrageenin (1%, 0.05 ml) dissolved in physiological saline was subcutaneously injected to the left hind paw of male Donryu rats to induce paw edema. The degree of paw edema was evaluated by measuring the volume of the paw 3 hours after carrageenin administration. […] Inhibitory activity was expressed by the dose (ED30) of the test compound necessary for inhibiting by 30% relative to the control group.
In general terms: In the carrageenan paw model, swelling and tenderness develop within hours.

Data set [3] can be described thus: effects on gastric ulcer formation in rats (Experimental Example 3). Also noted: species or system male Donryu rats. The note with it: rat, in vivo. How it is done: A test compound (100 mg/kg) was orally administered (10 ml/kg) to male Donryu rats. Six hours later, the stomach of the rats was exposed and fixed with 0.1% formalin. The stomach was opened and the degree of ulcer formation was evaluated.

Data set [4] addresses T3, human cyclooxygenase-2 (COX-2) (Homo sapiens, UniProt P35354).
T3 construct: made in house
T3 sequence (P35354 18-604): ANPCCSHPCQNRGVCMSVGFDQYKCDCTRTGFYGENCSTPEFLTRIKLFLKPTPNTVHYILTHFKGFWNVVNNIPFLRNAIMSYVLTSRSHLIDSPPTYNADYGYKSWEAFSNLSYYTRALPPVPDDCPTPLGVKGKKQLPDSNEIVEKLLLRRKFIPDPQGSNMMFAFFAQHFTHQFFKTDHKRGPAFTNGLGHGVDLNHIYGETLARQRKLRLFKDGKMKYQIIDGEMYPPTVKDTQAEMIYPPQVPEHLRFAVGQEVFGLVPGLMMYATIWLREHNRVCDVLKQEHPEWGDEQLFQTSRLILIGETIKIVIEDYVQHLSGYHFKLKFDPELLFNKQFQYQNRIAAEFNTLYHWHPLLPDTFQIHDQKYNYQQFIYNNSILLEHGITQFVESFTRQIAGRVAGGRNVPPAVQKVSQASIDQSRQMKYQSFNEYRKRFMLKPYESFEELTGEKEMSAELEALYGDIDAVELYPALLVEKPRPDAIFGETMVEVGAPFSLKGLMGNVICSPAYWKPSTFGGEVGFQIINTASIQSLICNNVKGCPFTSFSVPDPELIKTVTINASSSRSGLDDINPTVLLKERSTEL
As to the kind of experiment: inhibitory activity on cyclooxygenase-2 (Experimental Example 1-2, human COX-2 expressed by yeast). In kind it is biochemical.
Procedure: as §1

Data set [5] addresses T4, cyclooxygenase-1 (COX-1) (Ovis aries, UniProt P05979).
T4 sequence (P05979 25-600): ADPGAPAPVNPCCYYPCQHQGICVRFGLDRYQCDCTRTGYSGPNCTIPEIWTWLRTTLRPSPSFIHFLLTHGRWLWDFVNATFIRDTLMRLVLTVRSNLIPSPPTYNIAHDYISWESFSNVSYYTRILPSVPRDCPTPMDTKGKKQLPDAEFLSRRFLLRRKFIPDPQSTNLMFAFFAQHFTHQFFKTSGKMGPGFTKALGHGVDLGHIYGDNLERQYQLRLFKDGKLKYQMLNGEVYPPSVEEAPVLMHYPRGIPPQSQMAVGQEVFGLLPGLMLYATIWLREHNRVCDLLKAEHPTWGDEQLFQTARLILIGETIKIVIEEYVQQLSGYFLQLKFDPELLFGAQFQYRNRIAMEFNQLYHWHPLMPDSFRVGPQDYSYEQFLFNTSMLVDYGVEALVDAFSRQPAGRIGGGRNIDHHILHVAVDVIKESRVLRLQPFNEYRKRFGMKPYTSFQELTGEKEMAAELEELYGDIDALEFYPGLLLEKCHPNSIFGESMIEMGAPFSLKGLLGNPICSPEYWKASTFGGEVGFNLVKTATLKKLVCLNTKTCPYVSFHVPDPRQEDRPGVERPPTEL
As to the kind of experiment: inhibitory activity on cyclooxygenase-1 (Experimental Example 1-1, sheep seminal vesicle microsome fraction). The format is biochemical. Conditions: for IC50: sheep seminal vesicle COX-1, pH 8, 24° C.; for inhibition at 100 µM: sheep seminal vesicle COX-1, inhibition at 100 μM test compound.
Procedure: as §1

T1 sequence (P23219 24-599): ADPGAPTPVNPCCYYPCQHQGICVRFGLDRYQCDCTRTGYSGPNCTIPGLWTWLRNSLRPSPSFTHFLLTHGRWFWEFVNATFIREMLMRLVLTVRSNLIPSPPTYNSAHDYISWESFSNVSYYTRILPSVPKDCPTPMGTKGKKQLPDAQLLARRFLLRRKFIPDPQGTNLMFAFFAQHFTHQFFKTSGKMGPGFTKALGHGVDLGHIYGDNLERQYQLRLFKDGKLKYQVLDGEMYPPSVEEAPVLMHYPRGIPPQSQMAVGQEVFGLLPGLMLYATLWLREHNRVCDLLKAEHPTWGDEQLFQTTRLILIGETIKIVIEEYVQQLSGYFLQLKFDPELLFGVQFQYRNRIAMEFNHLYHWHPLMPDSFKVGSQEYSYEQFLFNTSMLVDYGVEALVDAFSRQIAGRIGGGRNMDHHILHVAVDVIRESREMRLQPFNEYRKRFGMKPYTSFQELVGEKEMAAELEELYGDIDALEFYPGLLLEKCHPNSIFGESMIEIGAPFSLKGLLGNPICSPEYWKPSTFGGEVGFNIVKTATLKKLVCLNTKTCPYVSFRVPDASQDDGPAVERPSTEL

One may read the IC50 as the concentration that gives 50% inhibition. A lower IC50 goes with higher potency. On to `Cc1nc(-c2ccc(C)s2)c(-c2ccc(S(C)(=O)=O)cc2)o1` [2(A), 5-(4-methylsulfonylphenyl)-2-methyl-4-(5-methyl-2-thienyl)oxazole], for which the IC50 on cyclooxygenase-1 (COX-1) [1] came out at 47.5 µM; against cyclooxygenase-2 (COX-2), 0.4 µM; in data set [4] it was 0.04 µM; against cyclooxygenase-1 (COX-1) [5] it was 50 µM. Also, the ED30 in data set [2] was 10.8 mg/kg. The compound further yielded a TD50 at 6 h in data set [3] (po) above 100 mg/kg.

The inhibition is how much of the control response was suppressed. A low value points to little suppression. The compound `Cc1nc(-c2ccc(S(C)(=O)=O)cc2)c(-c2ccc(C)s2)o1` [2(B), 4-(4-methylsulfonylphenyl)-2-methyl-5-(5-methyl-2-thienyl)oxazole] had an IC50 against cyclooxygenase-2 (COX-2) of 80 µM. Besides, the inhibition at 100 µM at cyclooxygenase-1 (COX-1) [5] was determined as 10%.

With `Cc1nc(-c2ccc(Cl)s2)c(-c2ccc(S(C)(=O)=O)cc2)o1` [10(A), 4-(5-chloro-2-thienyl)-2-methyl-5-(4-methylsulfonylphenyl)oxazole], the IC50 on cyclooxygenase-1 (COX-1) [1] stood at 12.5 µM; at cyclooxygenase-2 (COX-2), 0.2 µM; in data set [4], 0.03 µM. This compound also came in with an ED30 in data set [2] of 5.4 mg/kg. The compound further had a TD50 at 6 h in data set [3] (po) above 100 mg/kg. In addition, testing at 100 µM on cyclooxygenase-1 (COX-1) [5] gave an inhibition of 13%.

The compound `Cc1nc(-c2ccc(S(C)(=O)=O)cc2)c(-c2ccc(Cl)s2)o1` [10(B), 5-(5-chloro-2-thienyl)-2-methyl-4-(4-methylsulfonylphenyl)oxazole] had an IC50 against cyclooxygenase-2 (COX-2) of 30 µM. At cyclooxygenase-1 (COX-1) [5], this compound had an inhibition at 100 µM of 57%.

Consider `Cc1nc(-c2cccs2)c(-c2ccc(S(C)(=O)=O)cc2)o1` [11(A), 5-(4-methylsulfonylphenyl)-2-methyl-4-(2-thienyl)oxazole], for which the IC50 against cyclooxygenase-2 (COX-2) amounted to 50 µM. This compound also displayed an ED30 in data set [2] of 9.5 mg/kg. At cyclooxygenase-1 (COX-1) [5], this compound registered an inhibition at 100 µM of 14%.

`Cc1nc(-c2ccc(S(C)(=O)=O)cc2)c(-c2cccs2)o1` [11(B), 4-(4-methylsulfonylphenyl)-2-methyl-5-(2-thienyl)oxazole]: the inhibition at 100 µM was 2% against cyclooxygenase-2 (COX-2) and 6% against cyclooxygenase-1 (COX-1) [5].

Take `Cc1nc(C2CCCCC2)c(-c2ccc(S(C)(=O)=O)cc2)o1` [Example 1, 4-Cyclohexyl-2-methyl-5-(4-methylsulfonylphenyl)oxazole]: the ED30 in data set [2] came to 5.4 mg/kg. In data set [3] (po), this compound registered a TD50 at 6 h above 100 mg/kg. Further, at cyclooxygenase-1 (COX-1) [5], the inhibition at 100 µM was 11%.

For the compound `CCc1nc(C2CCCCC2)c(-c2ccc(S(C)(=O)=O)cc2)o1` [Example 3, 4-Cyclohexyl-2-ethyl-5-(4-methylsulfonylphenyl)oxazole], at cyclooxygenase-2 (COX-2), the IC50 is below 1 µM. Also, at 100 µM the inhibition against cyclooxygenase-1 (COX-1) [5] was 18%.

On to `Cc1nc(C2CCC(C)CC2)c(-c2ccc(S(C)(=O)=O)cc2)o1` (centres unmarked) [Example 4, 5-(4-methylsulfonylphenyl)-2-methyl-4-(4-methylcyclohexyl)oxazole], for which the IC50 on cyclooxygenase-1 (COX-1) [1] was above 100 µM; on cyclooxygenase-2 (COX-2), 4 µM. Also, testing at 100 µM at cyclooxygenase-1 (COX-1) [5] gave an inhibition of 26%.

Regarding `CC1=CCC(c2nc(C)oc2-c2ccc(S(C)(=O)=O)cc2)CC1` (centres unmarked) [Example 5], at cyclooxygenase-2 (COX-2), the midpoint of inhibition, the IC50, lay at 10 µM. The compound also gave an inhibition at 100 µM against cyclooxygenase-1 (COX-1) [5] of 5%.

On cyclooxygenase-2 (COX-2), `Cc1nc(C2CCCC2)c(-c2ccc(S(C)(=O)=O)cc2)o1` [Example 6, 4-cyclopentyl-2-methyl-5-(4-methylsulfonylphenyl)oxazole] came in with an inhibition at 100 µM of 18%. Further, the IC50 against cyclooxygenase-1 (COX-1) [5] is 50 µM.

As for `Cc1nc(C2CCCCCC2)c(-c2ccc(S(C)(=O)=O)cc2)o1` [Example 7, 4-cycloheptyl-2-methyl-5-(4-methylsulfonylphenyl)oxazole], on cyclooxygenase-1 (COX-1) [5], the IC50 turned out to be 2 µM.

With `Cc1nc(-c2ccco2)c(-c2ccc(S(C)(=O)=O)cc2)o1` [Example 8, 4-(2-furyl)-2-methyl-5-(4-methylsulfonylphenyl)oxazole], the inhibition at 100 µM against cyclooxygenase-2 (COX-2) and on cyclooxygenase-1 (COX-1) [5] was 7% in each case.

In the case of `Cc1nc(-c2ccsc2)c(-c2ccc(S(C)(=O)=O)cc2)o1` [Example 9, 5-(4-methylsulfonylphenyl)-2-methyl-4-(3-thienyl)oxazole], the values for the inhibition at 100 µM against cyclooxygenase-2 (COX-2) and against cyclooxygenase-1 (COX-1) [5] were 35% and 2%, respectively.

Compound `CS(=O)(=O)c1ccc(-c2oc(-c3ccccc3)nc2C2CCCCC2)cc1` [Example 12, 2-phenyl-4-cyclohexyl-5-(4-methylsulfonylphenyl)oxazole, reference compound] displayed an inhibition at 100 µM on cyclooxygenase-2 (COX-2) of 16%. For the same compound, the IC50 at cyclooxygenase-1 (COX-1) [5] was above 100 µM.

Take `Cc1nc(-c2ccc(Cl)s2)c(-c2ccc(S(N)(=O)=O)cc2)o1` [Example 13, 5-(4-Aminosulfonylphenyl)-4-(5-chloro-2-thienyl)-2-methyloxazole]: the results for the IC50 (against cyclooxygenase-1 (COX-1) [1]; in data set [4]) were 0.6 µM and 0.02 µM, respectively.

As for `Cc1nc(C2CCCCC2)c(-c2ccc(S(N)(=O)=O)cc2)o1` [Example 14, 5-(4-Aminosulfonylphenyl)-4-cyclohexyl-2-methyloxazole], the IC50 is 1.5 µM against cyclooxygenase-2 (COX-2), 0.07 µM in data set [4] and above 100 µM against cyclooxygenase-1 (COX-1) [5]. The compound also came in with an ED30 in data set [2] of 4.5 mg/kg. This compound yielded a TD50 at 6 h in data set [3] (po) above 100 mg/kg.

`CNS(=O)(=O)c1ccc(-c2oc(C)nc2C2CCCCC2)cc1` [Example 15, 4-Cyclohexyl-2-methyl-5-(4-methylaminosulfonylphenyl)oxazole] gave an IC50 in data set [4] of 4 µM.

The compound `COc1ccc2c(c1)c(CC(=O)O)c(C)n2C(=O)c1ccc(Cl)cc1` [indomethacin, reference compound] displayed an ED30 in data set [2] of 2.9 mg/kg. Further, in data set [3] (oral, stomach examined six hours later, read-out: gastric ulcer formation in rats), the TD50 at 6 h came to 10 mg/kg.

(Values after patent publication US5945539A, “Oxazole derivatives and use thereof” (Japan Tobacco, Inc., priority 1994, dated 1999).)
